Here are results for two molecules from patent publication US12419893B2, “Methods and compositions for maximizing the prevention and/or reduction of various maladies and drug side-effects using uridine” (Tosk, Inc., priority 2018, dated 2025).

One data set concerns female CD-1 mice. Description: Protection from 5-FU induced weight loss, study I (FIG. 2). The data set is classed as in vivo. Conditions: n=6. As to the method:
The aim of this study was to explore whether uridine combined with a uridine phosphorylase inhibitor provided better protection from weight loss produced by 5-FU compared to uridine alone. Weight loss is one of the cardinal features of mucositis.
Four groups of female CD-1 mice were treated with daily ip injections of either PBS vehicle (Group 1), 80 mg/kg, 5-FU qdx5 (Groups 2), or 80 mg/kg, 5-FU qdx5 combined with 750 mg/kg uridine, bid, or 80 mg/kg, 5-FU qdx5 combined with 750 mg/kg uridine and 120 mg/kg bid TK-90, a representative 2,2′-anhydropyrimidine test article, sandwiched before and after the uridine doses. Controls include PBS alone at times mimicking the time for 5-FU and combined uridine and TK-90 treatments. There was n=6 animals in all groups.
Animals were sacrificed on Day 5 by cervical dislocation and properly disposed. Animal weights were recorded daily for 5 days and the % difference between Day 0 and Day 5 at termination calculated.
Results from the study are provided as percent weight gain/loss from pre-dose weight on Day 0 in FIG. 2. […] The statistical difference between Groups 2 and 3 was much less robust (p=0.036).

Another data set relates to C57BL/6 female mice. Description: Protection from decrease in plasma citrulline caused by 5-FU (FIG. 4). The data set is classed as in vivo. The method, then: The chemotherapeutic challenge, 5-FU, was diminished plasma citrulline. […] Citrulline is a well-accepted surrogate marker for mucositis.
FIG. 4 depicts citrulline concentrations measured in plasma obtained at sacrifice on Day 3 from C57BL/6 female mice, approximately 20 g, treated on Day 0 with 200 mg/kg 5-FU, ip. On Days 0-2, the uridine and uridine+TK-90 group animals were dosed with […], bid. On Days 0-2, the uridine+TK-90 group animals were treated with 700 mg/kg TK-90, bid, in addition to the 5-FU on Day 0 and the uridine on Days 0-2. Animals in the PBS group were treated on Day 0-2 with PBS, bid. Data from all six mice in the PBS, uridine and uridine plus TK-90 groups were considered. Data from only five animals in the 5-FU group were considered because results from one animal was considered an outlier (unusually low response from the injected 5-FU). Plasma citrulline is a marker for mucosal health. […]
Thawed plasma samples from the study were analyzed for citrulline using a published LC/MS/MS-Isotope assay. (Jones et al., “Development and validation of a LC-MS/MS assay for quantitation of plasma citrulline for application to animal models of the acute radiation syndrome across multiple species,” Anal Bioanal Chem. (2014) 406 (19): 4663-75.).

The conditions of data set [1]: man and animals (Deng et al. 2017); cited from earlier work.
For data set [2] the following is noted: cited from earlier work.

Take `O=c1[nH]cc(F)c(=O)[nH]1` [Compound 5-FU, 5-fluoro-2,4 (1H,3H)-Pyrimidinedione]: the “weight loss compared to the PBS vehicle control (percent weight change Day 5 vs Day 0)” value in the data set on female CD-1 mice (80 mg/kg 5-FU qdx5 ip) was “robust weight loss”. Besides, in the data set with C57BL/6 female mice (200 mg/kg 5-FU ip Day 0, plasma at Day 3, n=5), the “plasma citrulline compared to the PBS vehicle control” value is “significant reduction in citrulline”.

Turning to `O=c1ccn([C@@H]2O[C@H](CO)[C@@H](O)[C@H]2O)c(=O)[nH]1` [uridine], the “protection from 5-FU induced weight loss compared to the 5-FU group alone” value in the data set with female CD-1 mice (Day 5 vs Day 0, 5-FU 80 mg/kg qdx5, uridine 750 mg/kg bid, TK-90 120 mg/kg bid, ip) is reported as “statistically significant but much less”. Further, the “half-life of administered uridine” value in data set [1] was around 3 min. In addition, in the data set on C57BL/6 female mice (5-FU 200 mg/kg ip Day 0, uridine 250 mg bid Days 0-2, TK-90 700 mg/kg bid Days 0-2, plasma Day 3, n=6), the “protection from 5-FU lowered plasma citrulline” value is recorded as “provided protection”. Besides, the “toxicities of continuous infusions of high-dose uridine” value in data set [2] (continuous infusion) was “high fever, cellulitis, and superior vena cava syndrome”. Moreover, the “toxicity of high-dose oral uridine in clinical studies” value in data set [2] (oral, patients) is “severe patient diarrhea, phlebitis, and pyrogenic reactions”.
